Experiments:
Assay in all cases: relative viability (nuclei count vs DMSO), 5 days (fraction); higher = more cells survive
[1] = compound: COc1cc([C@@H]2c3cc4c(cc3[C@@H](O[C@@H]3O[C@@H]5CO[C@@H](C)O[C@H]5[C@H](O)[C@H]3O)[C@H]3COC(=O)[C@H]23)OCO4)cc(OC)c1O [Etoposide] + N=C(N)NC(=N)NCCc1ccccc1 [Phenformin] (partner 250 µM)
Summary of the method: (§1)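 After 5 days of treatment, lung cancer cells in 1536-well plates were fixed and stained in a single step (final 0.05% Triton X-100, 1% formaldehyde, 1 ug/ml Hoechst) and their nuclei counted on 4× images. Treatment had been applied by pin tool the day after seeding as one drug alone or as a fixed anchor-drug dose with five library-drug doses (not always all listed) in √10 steps. Relative viability is the nuclei count of treated wells divided by that of vehicle wells, and values are medians of duplicate plates.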

[2] = compound: CC1=C(N=C(N=C1N)[C@H](CC(=O)N)NC[C@@H](C(=O)N)N)C(=O)N[C@@H]([C@H](C2=CN=CN2)OC3C(C(C(C(O3)CO)O)O)OC4C(C(C(C(O4)CO)O)OC(=O)N)O)C(=O)N[C@H](C)[C@H]([C@H](C)C(=O)N[C@@H]([C@@H](C)O)C(=O)NCCC5=NC(=CS5)C6=NC(=CS6)C(=O)NCCC[S+](C)C)O [Bleomycin] + NC(=O)Nc1cc(-c2cccc(F)c2)sc1C(=O)N[C@H]1CCCNC1 [AZD7762] (partner 0.2 µM); conditions: main component drawn
Summary of the method: as §1

[3] = compound: CC1=C(N=C(N=C1N)[C@H](CC(=O)N)NC[C@@H](C(=O)N)N)C(=O)N[C@@H]([C@H](C2=CN=CN2)OC3C(C(C(C(O3)CO)O)O)OC4C(C(C(C(O4)CO)O)OC(=O)N)O)C(=O)N[C@H](C)[C@H]([C@H](C)C(=O)N[C@@H]([C@@H](C)O)C(=O)NCCC5=NC(=CS5)C6=NC(=CS6)C(=O)NCCC[S+](C)C)O [Bleomycin] + Cc1cc(Nc2cc(N3CCN(C)CC3)nc(Sc3ccc(NC(=O)C4CC4)cc3)n2)n[nH]1 [Tozasertib] (partner 0.1 µM); conditions: main component drawn
Summary of the method: as §1

[4] = compound: CC1=C(N=C(N=C1N)[C@H](CC(=O)N)NC[C@@H](C(=O)N)N)C(=O)N[C@@H]([C@H](C2=CN=CN2)OC3C(C(C(C(O3)CO)O)O)OC4C(C(C(C(O4)CO)O)OC(=O)N)O)C(=O)N[C@H](C)[C@H]([C@H](C)C(=O)N[C@@H]([C@@H](C)O)C(=O)NCCC5=NC(=CS5)C6=NC(=CS6)C(=O)NCCC[S+](C)C)O [Bleomycin] + Nc1nc2[nH]cc(CCc3ccc(C(=O)N[C@@H](CCC(=O)O)C(=O)O)cc3)c2c(=O)[nH]1 [Pemetrexed] (partner 0.2 µM); conditions: main component drawn
Summary of the method: as §1

Cell Line	relative viability ([1]; first compound 0.01 µM)	relative viability ([1]; first compound 0.03162 µM)	relative viability ([1]; first compound 0.1 µM)	relative viability ([1]; first compound 0.3162 µM)	relative viability ([1]; first compound 1 µM)	relative viability ([2]; first compound 0.01 µM)	relative viability ([2]; first compound 0.03162 µM)	relative viability ([2]; first compound 0.1 µM)	relative viability ([2]; first compound 0.3162 µM)	relative viability ([2]; first compound 1 µM)	relative viability ([3]; first compound 0.01 µM)	relative viability ([3]; first compound 0.03162 µM)	relative viability ([3]; first compound 0.1 µM)	relative viability ([3]; first compound 0.3162 µM)	relative viability ([3]; first compound 1 µM)	relative viability ([4]; first compound 0.01 µM)	relative viability ([4]; first compound 0.03162 µM)	relative viability ([4]; first compound 0.1 µM)	relative viability ([4]; first compound 0.3162 µM)	relative viability ([4]; first compound 1 µM)
NCI-H1993	0.502	0.571	0.528	0.51	0.412	0.723	0.822	0.739	0.491	0.517	0.505	0.501	0.551	0.575	0.539	0.649	0.584	0.496	0.469	0.514
NCI-H2085	0.748	0.78	0.532	0.547	0.322	0.896	0.967	0.828	0.301	0.464	0.758	0.74	0.783	0.539	0.428	0.878	0.954	0.811	0.347	0.447
NCI-H2087	0.407	0.508	0.435	0.278	0.143	0.981	1.2	1.31	0.976	0.512	–	0.198	0.186	0.14	0.119	0.645	0.619	0.622	0.241	0.186
NCI-H2126	0.524	0.534	0.427	0.413	0.236	0.932	0.963	1.15	0.894	0.922	0.736	0.865	0.861	0.421	0.32	0.728	0.774	0.629	0.567	0.611
NCI-H2170	0.373	0.429	0.468	0.409	0.348	0.781	0.63	0.687	0.467	0.421	0.627	0.826	0.735	0.549	0.372	0.255	0.263	0.244	0.235	0.234
NCI-H2342	0.646	0.643	0.425	0.351	0.284	0.5	0.611	0.495	0.589	0.42	0.537	0.522	0.493	0.432	0.445	0.837	0.759	0.685	0.539	0.62
NCI-H2347	0.39	0.446	0.345	0.247	0.294	0.727	0.858	0.714	0.325	0.45	0.451	0.44	0.52	0.221	0.413	0.401	0.427	0.435	0.383	0.423
NCI-H2405	0.381	0.432	0.415	0.364	0.283	0.668	0.683	0.632	0.531	0.304	0.703	0.758	0.682	0.475	0.398	0.955	0.974	0.919	0.595	0.408
NCI-H3122	0.351	0.382	0.377	0.281	0.197	0.972	0.991	0.966	0.379	0.33	0.337	0.281	0.324	0.177	0.166	0.214	0.205	0.201	0.165	0.166
PC-3 [JPC-3]	0.456	0.453	0.478	0.434	0.374	0.727	0.691	0.768	0.513	0.428	0.799	0.813	0.781	0.537	0.492	1.03	1.18	0.948	0.647	0.526
PC-14	0.621	0.662	0.485	0.372	0.203	0.254	0.347	0.187	0.0884	0.0848	0.335	0.275	0.145	0.0771	0.05	0.113	0.118	0.103	0.0537	0.0242
RERF-LC-KJ	0.414	0.469	0.42	0.36	0.329	0.905	0.848	0.492	0.278	0.179	0.311	0.339	0.297	0.234	0.193	0.416	0.504	0.391	0.261	0.142
SW 900	0.359	0.618	0.459	0.322	0.16	0.525	0.591	0.392	0.264	0.24	0.507	0.467	0.341	0.208	0.174	0.469	0.461	0.391	0.2	0.191

— the supplement of paper PMC10307832
